How the values were obtained:
IEC6 cells [1] = test: Fibrosis/EMT-related gene and protein expression in TGFβ1-induced EMT cell model; type: cell-based, rat; details: for expression of fibrotic genes and proteins (Vimentin, αSMA): TGFβ1, oxamate 20 mmol/L, DCA 20 mmol/L or rotenone 10 nmol/L
IEC6 cells [2] = test: Lactate determination in cell culture supernatant; type: cell-based, rat; details: TGFβ1 10 ng/mL, 2DG 1 mmol/L, 7 days, n = 6
IEC6 cells [3] = test: Glycolysis and metabolic gene expression in TGFβ1-induced cells; type: cell-based, rat; details: TGFβ1 + 2DG vs TGFβ1, n = 7–8
Smad2 or Smad3 = test: Smad2/Smad3 phosphorylation after lactate treatment; type: cell-based
IEC6 cells [4] = test: Histone lactylation; type: cell-based, rat; details: exogenous lactate, Western blot, n = 3

## O=C(O)C(Cl)Cl [DCA, sodium dichloroacetate]
IEC6 cells [1]
  expression of fibrotic genes and proteins (Vimentin, αSMA): more pronounced reduction

## O=CC[C@@H](O)[C@H](O)[C@H](O)CO [Peptide 2DG, 2-Deoxy-D-glucose]
IEC6 cells [2]
  lactate levels (TGFβ1-mediated extracellular lactate production): substantial reduction
IEC6 cells [1]; TGFβ1 10 ng/mL, 2DG 1 mmol/L, 7 days
  expression of fibrotic genes and proteins: substantial reduction
IEC6 cells [3]
  glycolysis (GSEA-KEGG of gene expression): effectively inhibited glycolysis

## CC(O)C(=O)O (stereo not drawn) [lactate]
Smad2 or Smad3
  phosphorylation of Smad2 or Smad3: did not alter
IEC6 cells [4]
  site-specific histone lactylation (H2BK16la, H3K9la, H3K18la, H4K5la and H4K12la): induced overwhelming lactylation modifications
IEC6 cells [1]; lactate 10 mmol/L for 72 h, no TGFβ1, n = 6
  expression of fibrotic genes after lactate stimulation (qRT-PCR): significantly elevated

## NC(=O)C(=O)O [oxamate]
IEC6 cells [1]
  expression of fibrotic genes and proteins (Vimentin, αSMA): more pronounced reduction

## C=C(C)[C@H]1Cc2c(ccc3c2O[C@@H]2COc4cc(OC)c(OC)cc4[C@@H]2C3=O)O1 [rotenone]
IEC6 cells [1]
  expression of fibrotic genes and proteins (Vimentin, αSMA): increased the expression of fibrotic genes

Reference: article PMC11873616 (Acta Pharmaceutica Sinica. B, 2024)
